Experimental data from paper PMC8779173, “Discovery of Cofactor Competitive Inhibitors against the Human Methyltransferase Fibrillarin” (Pharmaceuticals, 2021).

Tests used:
[1] = molecular target: T1, human fibrillarin (hFBL) (Homo sapiens, UniProt P22087); assay: biochemical; set-up: SPR binding affinity of compounds to human fibrillarin methyltransferase domain; conditions: SPR
T1 construct: gene FBL; methyltransferase domain (residues 83–321)
T1 sequence (P22087 83-321): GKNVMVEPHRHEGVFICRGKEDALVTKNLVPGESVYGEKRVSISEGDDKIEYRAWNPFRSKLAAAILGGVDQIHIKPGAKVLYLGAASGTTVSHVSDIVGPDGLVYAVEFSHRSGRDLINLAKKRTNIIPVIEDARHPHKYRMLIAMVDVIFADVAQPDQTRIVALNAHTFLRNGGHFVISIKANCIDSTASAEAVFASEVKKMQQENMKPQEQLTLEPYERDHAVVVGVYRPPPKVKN
Excerpt: In addition, electron density for 1a was not observed beyond the amide linker, which appeared to be turning away from the catalytic site and pointing towards the bulk solvent. […] Indeed, the binding affinity of 1a turned out to be similar to that of 1 (Supplemental Table S3). […] Additionally, the extended piperidine ring in 2a was engaged in multiple hydrophobic interactions with residues G167, D236, and V237 with a stable chair conformation.

[2] = molecular target: T1, human fibrillarin (hFBL); assay: crystal structure (soak); STD NMR competition with SAM; SPR; type: binding
[3] = molecular target: T1, human fibrillarin (hFBL); assay: crystal structure (soak; no density beyond the amide linker); STD NMR competition with SAM; SPR; type: binding
[4] = molecular target: T1, human fibrillarin (hFBL); assay: STD NMR competition with SAM; type: binding
[5] = molecular target: T1, human fibrillarin (hFBL); assay: ITC; also SPR (Kd […]), STD NMR and crystal structure; type: binding

Row | Kd [1] | Structure (SMILES) | STD NMR competition with SAM [4] | further results
1 | 43.8 ± 2.2 µM | FC(F)(F)c1cc(NC2CCNCC2)ncn1 [2a] |  | crystal structure (soak); STD NMR competition with SAM; SPR [2]: complex structures were obtained for 1a (PDB code: 7SEC) and 2a (PDB code: 7SED)
2 | 510 ± 50 µM | N[C@H](Cc1cccc(NC(=O)Cc2cn3nc(C(F)(F)F)cc3c(=O)[nH]2)c1)C(=O)O [1a, (R)-2-Amino-3-(3-(2-(4-oxo-2-(trifluoromethyl)-4,5-dihydropyrazolo[1,5-a]pyrazin-6-yl)acetamido)phenyl)propanoic acid] |  | crystal structure (soak; no density beyond the amide linker); STD NMR competitio [3]: complex structures were obtained for 1a (PDB code: 7SEC) and 2a (PDB code: 7SED)
3 | 3350 ± 480 µM | N[C@@H](CCCNC(=O)Cc1cn2nc(C(F)(F)F)cc2c(=O)[nH]1)C(=O)O [1d, (S)-2-Amino-5-(2-(4-oxo-2-(trifluoromethyl)-4,5-dihydropyrazolo[1,5-a]pyrazin-6-yl)acetamido)pentanoic acid] | In addition to 1a, 1c, 1d, and a synthetic intermediate without the amino acid 1e were also shown to compete | 
4 | 520 ± 40 µM | Cc1cn2cc(C(F)(F)F)cc2c(=O)[nH]1 [compound 1, PS-6655] |  | 
5 |  | O=C(O)Cc1cn2nc(C(F)(F)F)cc2c(=O)[nH]1 [1e, 2-(4-Oxo-2-(trifluoromethyl)-4,5-dihydropyrazolo[1,5-a]pyrazin-6-yl)acetic acid] | a synthetic intermediate without the amino acid 1e were also shown to compete with SAM binding to hFBL | 
6 | 2660 ± 40 µM | N[C@@H](Cc1cccc(NC(=O)Cc2cn3nc(C(F)(F)F)cc3c(=O)[nH]2)c1)C(=O)O [1c, (S)-2-Amino-3-(3-(2-(4-oxo-2-(trifluoromethyl)-4,5-dihydropyrazolo[1,5-a]pyrazin-6-yl)acetamido)phenyl)propanoic acid] | without the amino acid 1e were also shown to compete with SAM binding to hFBL in solution by STD NMR | 
7 | 250 ± 20 µM | FC(F)(F)c1cc(NC2CCOCC2)ncn1 [2b] | both 2a and 2b were shown to compete with cofactor binding by STD NMR assays | 
8 | 33.7 ± 7.7 µM | C[S@@+](CC[C@H](N)C(=O)[O-])C[C@H]1O[C@@H](n2cnc3c(N)ncnc32)[C@H](O)[C@@H]1O [SAM] |  | Kd [5]: 14 ± 0.8 µM
9 | 2700 ± 780 µM | Nc1cc(C(F)(F)F)ncn1 [compound 2, FS-2818] |  | 
